Literature values, collected in US20020051751A1, “Pharmaceuticals and apparatus providing diagnosis and selective tissue necrosis” (priority 1985, published 2002).

System: DNA

Q: With Bleomycin as the substance, how does the “binding constant of Bleomycin to DNA” value read?
A: 10^6

Q: And the “Bleomycin molecules bound per nucleotides” value (results from Kd of 10^6)?
A: one Bleomycin molecule bound per eight nucleotides
